The values that follow are results of earlier work, collected in patent publication US20230357519A1, “REMOVAL OF ODORANTS FROM POST-CONSUMER POLYOLEFIN WASTE” (Borealis AG, priority 2020, published 2023).

For the series the following is noted: octanol/water; not determined experimentally, generally accepted literature values.

The structures appear in SMILES notation.

Turning to `CC(O)C(C)O` (centres unmarked) [2,3-Butanediol], the “log Poctanol/water” value is recorded as −0.92^1. `CCCCC(C)CCCC(C)C` (centres unmarked) [2,6-Dimethyl decane]: the “log Poctanol/water” value is 6.09^6. Take `CCCCC(CC)CO` (centres unmarked) [2-Ethyl-1-hexanol]: the “log Poctanol/water” value is listed as 2.73^3. For the compound `CCCCCCCC(C)=O` [2-Nonanone], the “log Poctanol/water” value is reported as 3.16^2. For the compound `CCCC(C)=O` [2-Pentanone], the “log Poctanol/water” value is 0.84^2.

Take `CCCCC(CCCC)CC(C)C` [5-(2-Methylpropyl)-nonane]: the “log Poctanol/water” value is given as 5.03^5. On to `C=C(C)[C@H]1CC=C(C)CC1` [D-Limonene], for which the “log Poctanol/water” value is listed as 4.57^4. `C=Cc1ccccc1` [Styrene]: the “log Poctanol/water” value is 3.05^2.
